In PubChem BioAssay (NCI):
“And” between values parts separate entries of the source, which are not always exact repeats. Equal values may be shown once.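 Five concentrations, 48 hours, 96-well plates. Here, GI50 denotes the concentration required for 50% inhibition of growth. TGI: total growth inhibition.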

How the values were obtained:
Assay in all cases: growth of human tumour cells (NCI), 48 h
MDA-MB-435 = system: MDA-MB-435
NCI/ADR-RES ovarian = system: NCI/ADR-RES ovarian
MDA-N = system: MDA-N
SNB-78 CNS = system: SNB-78 CNS
XF 498 CNS = system: XF 498 CNS
LXFL 529 NSCLC = system: LXFL 529 NSCLC
KM20L2 colon = system: KM20L2 colon
DMS 273 small cell lung = system: DMS 273 small cell lung

Row | Compound | GI50 (MDA-MB-435) | TGI (MDA-MB-435) | GI50 (NCI/ADR-RES ovarian) | TGI (NCI/ADR-RES ovarian) | TGI (MDA-N) | TGI (SNB-78 CNS) | TGI (XF 498 CNS) | TGI (LXFL 529 NSCLC) | TGI (KM20L2 colon) | TGI (DMS 273 small cell lung)
1 | CN1CCN(CCCOc2cccc3nc(Nc4cc(Cl)cc(Cl)c4)ccc23)CC1 | 1.68 µM | 3.2 µM | 1.72 µM | 3.29 µM | – | – | – | – | – | –
2 | CCCCCC/C=C/C#CCCCCCCCC(=O)O | – | > 100 µM | – | > 100 µM | > 100 µM | – | – | – | – | –
3 | Nc1nc(=O)n(C2CC(O)C(CO)O2)cc1F (stereo not drawn) | > 100 µM | > 100 µM | 0.107 µM | > 100 µM | – | – | – | – | – | –
4 | O=C1OC(CC(=O)c2ccc(F)cc2)C(Cl)=C1Cl (stereo not drawn) | – | – | – | – | – | > 100 µM | 46.8 µM | 31.9 µM | – | –
5 | COc1ccccc1-n1cnc(N)c1C(=O)c1cc(OC)c(OC)c(OC)c1 | 1.07 µM | 3.81 µM | 13.1 µM | > 100 µM | – | – | – | – | – | –
6 | COc1ccc(C(=O)/C=C/c2sc(Cl)nc2Cl)cc1 | 3.11 µM | 11.4 µM | 2.55 µM | 10.2 µM | – | – | – | – | – | –
7 | c1ccc2c(c1)[nH]c1cnc3c4ncccc4[nH]c3c12 | – | – | – | – | – | > 100 µM | > 100 µM | > 100 µM | > 100 µM | > 100 µM
8 | O=C(Nc1ccccc1[N+](=O)[O-])/C(=N/Nc1cccc(Cl)c1)c1c(O)c2ccccc2oc1=O | – | – | – | – | – | – | – | > 100 µM | > 100 µM | > 100 µM
9 | O=C(NC1CCN(Cc2ccccc2)CC1)c1cc(-c2cccnc2)nc2ccc(Cl)cc12 | 9.96 µM | > 100 µM | 15.6 µM | > 100 µM | – | – | – | – | – | –
10 | C[C@@H]1CC[C@H]2[C@@H](C)C(O)O[C@@H]3O[C@]4(C)CC[C@@H]1[C@]32OO4 (stereo partly drawn) | 0.361 µM | 10.8 µM | 0.581 µM | 12 µM | – | – | – | – | – | –
11 | Cc1c2cnccc2c(C)c2c1c1cc(O)ccc1n2C(C)C | 1.04 µM | 2.29 µM | 1.14 µM | 4.23 µM | – | – | – | – | – | –
12 | CCn1cnc(C[C@H](NC(=O)[C@H](CCCCNC(=O)Nc2cc(C(F)(F)F)cc(C(F)(F)F)c2)NC(=O)Nc2cc(C(F)(F)F)cc(C(F)(F)F)c2)C(=O)OC)c1 | 8.46 µM | > 10 µM | > 10 µM | > 10 µM | – | – | – | – | – | –
13 | O/N=C1/CCC/C1=C\c1ccccc1 | – | – | – | – | – | > 100 µM | > 100 µM | > 100 µM | > 100 µM | > 100 µM
14 | CN(C)c1ccc(/C=C/C(=O)c2ccc(Nc3nc(Nc4ccc(F)cc4)nc(Nc4ccc(F)cc4)n3)cc2)cc1 | 3.49 µM | 25.4 µM | 4.39 µM | 30.7 µM | – | – | – | – | – | –
15 | O=S(=O)(C1=CC(S(=O)(=O)c2ccccc2)COC1)c1ccccc1 (stereo not drawn) | – | – | – | – | – | – | > 100 µM | > 100 µM | – | > 100 µM
16 | Cc1ccc2nc(NC(=O)C(=O)C(C(=O)c3ccc4ccccc4c3)C3OC(=O)c4ccccc43)sc2c1 (stereo not drawn) | – | – | – | – | – | 27.7 µM | – | 19.2 µM | – | –
17 | COc1ccc(-c2nn(-c3cccc(Cl)c3)cc2/C=C2\NC(=S)N(c3ccc(Cl)cc3)C2=O)cc1 | 7.38 µM | > 25 µM | 5.51 µM | 14.5 µM | – | – | – | – | – | –
18 | CC(=O)Nc1ccccc1-c1nc2ccccc2nc1-c1ccccc1 | – | – | – | – | – | > 100 µM | > 100 µM | > 100 µM | > 100 µM | > 100 µM

Row | Compound | GI50 (MDA-MB-435) | TGI (MDA-MB-435) | GI50 (NCI/ADR-RES ovarian) | TGI (NCI/ADR-RES ovarian) | TGI (MDA-N) | TGI (SNB-78 CNS) | TGI (XF 498 CNS) | TGI (LXFL 529 NSCLC) | TGI (KM20L2 colon) | TGI (DMS 273 small cell lung)
19 | Cc1nnc(C[C@@H]2C=C(c3ccc(Cl)cc3)c3ccccc3-n3c(C)nnc32)o1 | 0.858 µM | 55.9 µM | 1.86 µM | 43.7 µM | – | – | – | – | – | –
20 | CC(C)N(C(=O)C12C3C4C1C1C2C3C41C(=O)C(C)(C)C)C(C)C (stereo not drawn) | – | – | – | – | – | > 100 µM | > 100 µM | > 100 µM | > 100 µM | > 100 µM
21 | CC(=O)N[C@H](C)[C@@H](O)[C@@H](C)[C@@H]1OC(=O)/C=C/C=C(C)\C=C\[C@]2(C)C[C@@H](NS(C)(=O)=O)C=C[C@@H]2/C=C(C)/C=C/[C@H]1C | 0.00268 µM and 0.00435 µM | > 43.5 µM | 0.235 µM and 0.127 µM | > 43.5 µM | – | – | – | – | – | –
22 | C[N+]1=C(c2cccnc2/C=N/O)OCC1(C)C | – | – | – | – | – | > 100 µM | > 100 µM | > 100 µM | > 100 µM | > 100 µM
23 | CCOC(=O)/C(=C/CC/C(C)=C/CC/C(C)=C/CCc1ccoc1)CC(=O)N1CCCCC1 | 3.05 µM | 10.9 µM | 3.88 µM | 23.7 µM | – | – | – | – | – | –
24 | CCN(C(=O)N1CCN(c2cc3c(cc2F)c(=O)c(C(=O)O)cn3C2CC2)CC1)c1nc(-c2ccccc2)cs1 | 2.87 µM | 11.6 µM | 2.88 µM | > 100 µM | – | – | – | – | – | –
25 | O=C(COc1ccc(/C=C2\Oc3ccc4ccccc4c3C2=O)cc1)c1ccc([N+](=O)[O-])cc1 | 12.2 µM | 29.1 µM | 21.8 µM | 82.1 µM | – | – | – | – | – | –
26 | Cc1cccc2c(C3=C(c4cn(C)c5ccccc45)C(=O)NC3=O)cn(C)c12 | 1.24 µM | > 25 µM | > 19.6 µM | > 25 µM | – | – | – | – | – | –
27 | Cc1cc(F)c(C(=O)Nc2cccc(-c3nncn3C(C)C)n2)cc1-n1cnc(C2CC2)c1 | 11.4 µM | > 100 µM | 17.7 µM | 93.2 µM | – | – | – | – | – | –
28 | Clc1ccc(-c2cc(-c3ccccc3)nc(N3CCN(CCCNc4ccnc5cc(Cl)ccc45)CC3)n2)cc1 | 1.73 µM | 3.16 µM | 1.75 µM | 3.53 µM | – | – | – | – | – | –
29 | C#CCN(N=O)C(=O)NC(CCCCNC(=O)OCc1ccccc1)C(=O)OCc1ccccc1 (stereo not drawn) | – | – | – | – | – | > 100 µM | – | 31.7 µM | > 100 µM | > 100 µM
30 | NC(N)=NN=c1c(=O)c2ccccc2c1=O | 1.95 µM | 3.71 µM | 10.4 µM | 31.7 µM | – | – | – | – | – | –
31 | O=CC(OC(=O)c1ccccc1)C(OC(=O)c1ccccc1)C(COC(c1ccccc1)(c1ccccc1)c1ccccc1)OC(=O)c1ccccc1 (stereo not drawn) | 12.8 µM | 46.7 µM | 19.3 µM | 45.4 µM | – | – | – | – | – | –
32 | O=C(O)C1C2C=CC(O2)C1C(=O)NCc1cccnc1 (stereo not drawn) | – | > 100 µM | – | > 100 µM | > 100 µM | – | – | – | – | –
33 | Cc1cc(S(=O)(=O)/N=C(\N)Nc2cccc(O)c2)c(SCc2ccccc2)cc1Cl | 14.2 µM | 32.5 µM | 26.5 µM | 70.2 µM | – | – | – | – | – | –
34 | CC1CC(C[N+](=O)[O-])CC2(C1)OCCO2 (stereo not drawn) | – | – | – | – | – | > 100 µM | – | > 100 µM | > 100 µM | > 100 µM
35 | CC(C)C[C@H](CC(=O)O)C(=O)N[C@@H](Cc1c[nH]c2ccccc12)C(=O)N[C@@H](C)c1ccccc1 | > 25 µM | > 25 µM | > 25 µM | > 25 µM | – | – | – | – | – | –
